{"source": "patent US7994129B2", "about": "“Methods of using black bear parathyroid hormone” (Michigan Technological University, priority 2005, dated 2011)", "molecules": {"B1": {"name": "Human PTH: human parathyroid hormone given once daily to humans (protein, UniProt P01270 32-115, looked up)", "Parathyroid hormone": "SVSEIQLMHNLGKHLNSMERVEWLRKKLQDVHNFVALGAPLAPRDAGSQRPRKKEDNVLVESHEKSLGEADKADVNVLTKAKSQ", "modifications": "Parathyroid hormone"}}, "key": {"MC-3T3 cells": {"test_system": "MC-3T3 cells", "experiment": "Gene expression by real-time PCR in MC-3T3 cells incubated with synthetic bear or human PTH 1-34 (Example 11)", "format": "cell-based", "conditions": "100 nM; for expression ratio of Bax/Bcl-2: 3 hours, MC-3T3 cells (FIG. 7, n=4); for expression of type I collagen / expression of osteocalcin: 6 hours, MC-3T3 cells; for expression of type I collagen: compared to the vehicle control; for expression of osteocalcin: compared to the vehicle control (FIG. 6, n=2)", "procedure": "MC-3T3 cells were incubated in vehicle or 100 nM synthetic bear or human PTH 1-34 for 3 or 6 hours (n=2 or 4). Total RNA was isolated, and cDNA was generated with reverse transcription. Primers for the bone matrix proteins type I collagen and osteocalcin, the pro-apoptotic protein Bax, the anti-apoptotic protein Bcl-2, and the housekeeping genes Gapdh, β-actin, and cyclophillin were designed using PrimerQuest software (Integrated DNA Technologies, Coralville, Iowa). Real-time PCR was performed using the Mx3000P real-time PCR system (Stratagene, LaJolla, Calif.). All samples were measured in duplicate. Gene expression was determined using the relative standard curve method normalized to the geometric mean of the three housekeeping genes (Gapdh, β-actin, and cyclophillin). Apoptosis-related genes were analyzed as the expression ratio of Bax/Bcl-2, since a decrease in this ratio is associated with decreased apoptosis in vitro."}, "procollagen-1 mRNA": {"test_system": "procollagen-1 mRNA", "conditions": "Nasu et al., 1998; cited from earlier work"}, "[1]": {"test_system": "MC-3T3 osteoblastic cells and MLO-Y4 osteocytic cells", "experiment": "Gene expression in bone cell lines by real-time PCR (Example 7)", "format": "cell-based", "conditions": "100 nM PTH polypeptide, 1 or 3 hours", "procedure": "Full-length recombinant black bear PTH (residues 1-84) is produced and its effects on levels of gene expression in bone cell lines (MC-3T3 osteoblastic cells and MLO-Y4 osteocytic cells) are investigated and are compared to results obtained using recombinant human PTH 1-84. Equivalent experiments are conducted using subfragments of black bear and human PTH, the subfragments including amino acid residues 1-34, 1-36, 7-84, 11-84, and 41-52 of the full-length (1-84) mature protein. For some experiments, black bear and human PTH polypeptides are synthesized with solid-phase methods.\nTo determine the effect of black bear and human PTH on regulation of bone matrix, transcriptional regulatory, anti-apoptosis (Bcl-2) genes, and the pro-apoptosis gene Bax, cells are cultured for 1 or 3 hours with human or bear PTH 1-84 or a subfragment. Gene expression is quantified with real-time PCR. […]\nReverse transcription to generate cDNA is performed using Superscript II reverse transcriptase (Invitrogen, Carlsbad, Calif.), and 0.5 μg Oligo(dT) 12-18 primer at 42° C. for 20 minutes, 50° C. for 10 minutes and 42° C. for 1 hour in a gradient thermocycler (Mastercycler gradient, Eppendorf, Westbury, N.Y.). […] Gene expression is determined using the relative standard curve method normalized to the geometric mean of the three housekeeping genes. […]"}, "rats": {"test_system": "rats", "conditions": "cited from earlier work; for osteosarcoma on long-term usage: rats"}, "[2]": {"conditions": "men and women who can lose 20-30% of cortical and cancellous bone; cited from earlier work"}, "ovariectomized rats": {"test_system": "ovariectomized rats", "conditions": "cited from earlier work"}, "[3]": {"conditions": "humans, once daily; cited from earlier work"}}, "note": "Entries after “also recorded” stand apart in the source; their conditions may differ.", "data": [{"molecule": "human PTH 1-34: synthetic human PTH 1-34, the 1-34 region of human PTH, used as comparator (SVSEIQLMHNLGKHLNSMERVEWLRKKLQDVHNF; Parathyroid hormone; UniProt P01270 32-65, looked up, fragment)", "values": [{"measurement": "expression ratio of Bax/Bcl-2", "setting": "MC-3T3 cells", "value": "increases"}, {"measurement": "expression of type I collagen", "setting": "MC-3T3 cells", "value": "did not affect"}, {"measurement": "expression of osteocalcin", "setting": "MC-3T3 cells", "value": "substantially upregulated; also recorded: upregulate"}, {"measurement": "production of procollagen-1 mRNA", "setting": "procollagen-1 mRNA", "value": "down-regulates"}]}, {"molecule": "bear PTH 1-34: synthetic polypeptide of amino acid residues 1-34 of black bear parathyroid hormone, SEQ ID NO: 2 (SVSEIQFMHNLGKHLSSMERVEWLRKKLQDVHNF; listed as Ursus americanus)", "values": [{"measurement": "expression ratio of Bax/Bcl-2", "setting": "MC-3T3 cells", "value": "decreased"}, {"measurement": "expression ratio of Bax/Bcl-2", "setting": "MC-3T3 cells; listed as black bear PTH 1-34", "value": "decreases"}, {"measurement": "expression of type I collagen", "setting": "MC-3T3 cells", "value": "did not affect"}, {"measurement": "expression of osteocalcin", "setting": "MC-3T3 cells", "value": "substantially upregulated"}, {"measurement": "expression of osteocalcin", "setting": "MC-3T3 cells; listed as black bear PTH 1-34", "value": "upregulate"}, {"measurement": "gene expression (bone matrix, transcriptional regulatory and transcriptional activator genes)", "setting": "[1]", "value": "upregulates"}]}, {"molecule": "ALX1-11: recombinant human PTH 1-84 (NPS Pharmaceuticals), under consideration for FDA approval", "values": [{"measurement": "osteosarcoma on long-term usage", "setting": "rats", "value": "generates osteosarcoma"}, {"measurement": "lost bone recovered during suggested treatment regimen", "setting": "[2]", "value": 8, "unit": "%"}]}, {"molecule": "CC[C@H](C)[C@H](NC(=O)[C@H](CCC(=O)O)NC(=O)[C@H](CO)NC(=O)[C@@H](NC(=O)[C@@H](N)CO)C(C)C)C(=O)N[C@@H](CCC(N)=O)C(=O)N[C@@H](CC(C)C)C(=O)N[C@@H](CCSC)C(=O)N[C@@H](Cc1cnc[nH]1)C(=O)N[C@@H](CC(N)=O)C(=O)N[C@@H](CC(C)C)C(=O)NCC(=O)N[C@@H](CCCCN)C(=O)N[C@@H](Cc1cnc[nH]1)C(=O)N[C@@H](CC(C)C)C(=O)N[C@@H](CC(N)=O)C(=O)N[C@@H](CO)C(=O)N[C@@H](CCSC)C(=O)N[C@@H](CCC(=O)O)C(=O)N[C@@H](CCCN=C(N)N)C(=O)N[C@H](C(=O)N[C@@H](CCC(=O)O)C(=O)N[C@@H](Cc1c[nH]c2ccccc12)C(=O)N[C@@H](CC(C)C)C(=O)N[C@@H](CCCN=C(N)N)C(=O)N[C@@H](CCCCN)C(=O)N[C@@H](CCCCN)C(=O)N[C@@H](CC(C)C)C(=O)N[C@@H](CCC(N)=O)C(=O)N[C@@H](CC(=O)O)C(=O)N[C@H](C(=O)N[C@@H](Cc1cnc[nH]1)C(=O)N[C@@H](CC(N)=O)C(=O)N[C@@H](Cc1ccccc1)C(=O)O)C(C)C)C(C)C", "note": "[LY333334]", "values": [{"measurement": "osteosarcoma on long-term usage", "setting": "rats", "value": "generates osteosarcoma"}]}, {"molecule": "human PTH 1-84: full-length human parathyroid hormone, residues 1-84", "values": [{"measurement": "rate of carcinogenicity compared with human PTH 1-34", "setting": "rats; preliminary results", "value": "lower"}]}, {"molecule": "bovine PTH 1-34: bovine PTH 1-34; rat PTH 1-34 has 5 amino acid sequence differences from it (AVSEIQFMHNLGKHLSSMERVEWLRKKLQDVHNF; Parathyroid hormone; UniProt P01268 32-65, looked up, fragment)", "values": [{"measurement": "greater bone formation response than to rat PTH 1-34", "setting": "ovariectomized rats; daily 25 μg injections", "value": 25, "unit": "%"}, {"measurement": "greater increase in bone volume fraction during treatment", "setting": "ovariectomized rats; injection, versus rat PTH 1-34", "value": 37, "unit": "%"}]}, {"molecule": "B1", "values": [{"measurement": "bone mass", "setting": "[3]", "value": "increases"}, {"measurement": "fracture incidence", "setting": "[3]", "value": "decreases"}]}]}
